In paper PMC5059758, “Structural characterization of antibiotic self-immunity tRNA synthetase in plant tumour biocontrol agent” (Nature Communications, 2016):

Columns and labels:
[1] = test system: LeuRSAt (leucyl-tRNA synthetase); assay: Aminoacylation assay, wt LeuRSAt; assay type: biochemical, A. tumefaciens; conditions: 20 nM TM84, 4 nM enzyme, 0.63 mM ATP, 28 °C, pH 7.4
Experimental: […] L-leucine (20 μCi/mmole), 5 μg/ml inorganic pyrophosphatase, 1 μM BSA, 10 μM of active in vitro transcribed tRNA^Leu and enzymes in the range of 2–8 nM. Reactions were pre-incubated with or without substrate and/or inhibitor and then carried out at 28 °C (37 °C-LeuRSHp). Aliquots of the reaction (5–10 μl) were quenched on 3 mM filter pads (Whatman, GE Healthcare) presoaked with 5% trichloroacetic acid (TCA). The pads were washed thrice with 5% TCA and 90% ethanol at 4 °C and then dried. The amount of Leu-tRNA^Leu was then quantified using scintillation counting. Each reaction was performed in triplicate and analyzed using Kaleidagraph (for Km and kcat determinations) or GraphPad Prism software (for IC50 determination).

[2] = test system: LeuRSAt Triad (P45T/N105A/M633Q); assay: Isothermal titration calorimetry, LeuRSAt Triad mutant; assay type: binding, A. tumefaciens; conditions: ITC
Experimental: (§1) Typically, about 4–8 μM active protein solution and a 10-fold higher ligand concentration were prepared in buffer containing 50 mM HEPES (pH 7.4), 20 mM KCl 10 mM MgCl2 and 1 mM β-ME. The titrations were carried out in triplicate at 28 °C. The data was then analyzed using Origin software (version 7) and fitted to a one-site or a two-site binding model to obtain the binding affinity (Kd), stoichiometry (N) and enthalpy (ΔH) for each complex.

[3] = test system: AgnB2 Triple (T42P/A102N/Q573M); assay: Aminoacylation assay, AgnB2 Triple mutant; assay type: biochemical, Agrobacterium radiobacter K84; conditions: 4 nM enzyme, 0.63 mM ATP, 28 °C, pH 7.4
[4] = target: T1, AgnB2 Triple mutant + LS domain (Agrobacterium radiobacter, UniProt B9JQP8, A102N/DEL566-572/Q573M/T42P, form not given); assay: Isothermal titration calorimetry, AgnB2 Triple mutant + LS domain; assay type: binding, Agrobacterium radiobacter K84; conditions: ITC, enzyme alone
T1 sequence (B9JQP8 1-814 T42P/A102N/Q573M/DEL566-572): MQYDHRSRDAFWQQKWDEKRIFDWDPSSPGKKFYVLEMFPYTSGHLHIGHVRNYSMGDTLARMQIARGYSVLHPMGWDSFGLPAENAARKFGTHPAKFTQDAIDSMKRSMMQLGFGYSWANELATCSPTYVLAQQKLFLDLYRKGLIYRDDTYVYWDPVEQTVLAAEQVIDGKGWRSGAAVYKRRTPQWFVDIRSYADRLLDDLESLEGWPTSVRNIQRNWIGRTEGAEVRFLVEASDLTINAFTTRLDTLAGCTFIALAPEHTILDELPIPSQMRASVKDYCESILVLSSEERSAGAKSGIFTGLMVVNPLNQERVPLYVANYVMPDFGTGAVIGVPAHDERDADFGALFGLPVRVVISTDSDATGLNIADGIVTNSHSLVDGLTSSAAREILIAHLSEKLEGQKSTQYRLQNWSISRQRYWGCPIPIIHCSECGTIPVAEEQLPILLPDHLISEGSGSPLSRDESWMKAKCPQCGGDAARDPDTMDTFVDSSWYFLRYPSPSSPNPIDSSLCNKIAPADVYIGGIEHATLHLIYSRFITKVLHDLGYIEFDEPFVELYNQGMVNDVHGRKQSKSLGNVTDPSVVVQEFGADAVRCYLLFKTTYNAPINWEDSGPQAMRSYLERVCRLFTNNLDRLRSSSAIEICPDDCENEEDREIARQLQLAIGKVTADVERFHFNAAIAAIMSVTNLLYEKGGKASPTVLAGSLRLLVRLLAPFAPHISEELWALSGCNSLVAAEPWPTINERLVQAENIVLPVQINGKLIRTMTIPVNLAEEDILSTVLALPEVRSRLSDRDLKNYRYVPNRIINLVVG
T1 sequence (Q8UBV2 585-631 partner): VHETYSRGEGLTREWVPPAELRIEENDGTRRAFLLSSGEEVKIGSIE
Excerpt: The LS domain of LeuRSAt (141 bp) was inserted into AgnB2 (replacing the region between amino acid no. 566 and 572 with the LS domain)[37] To obtain this, the forward PCR primer was designed to contain the region of AgnB2 (∼25 bp) preceding the LS domain insertion followed by the first 25 bases of the LS domain (5′–3′). Similarly, the reverse primer was designed so as to include the last 25 bp of the LS domain (3′–5′) and the gene sequence of AgnB2 after the LS domain insertion. An extension reaction was carried out to obtain mega primers, (forward and reverse) encoding the entire LS domain (of LeuRSAt) flanked by the sequence of AgnB2 on both sides using the protocol by Wang and Malcolm[42]. DpnI digestion was then carried out to remove the wt template. The resultant mega primer was gel purified using the Qiaex II gel extraction kit (Qiagen) to be used in the second step. […]
Typically, about 4–8 μM active protein solution and a 10-fold higher ligand concentration were prepared in buffer containing 50 mM HEPES (pH 7.4), 20 mM KCl 10 mM MgCl2 and 1 mM β-ME. […] The data was then analyzed using Origin software (version 7) and fitted to a one-site or a two-site binding model to obtain the binding affinity (Kd), stoichiometry (N) and enthalpy (ΔH) for each complex.

[5] = target: T2, AgnB2 Triple + Q413R mutant (Agrobacterium radiobacter, UniProt B9JQP8, A102N/Q413R/Q573M/T42P); assay: Aminoacylation assay, AgnB2 Triple + Q413R mutant; assay type: biochemical, Agrobacterium radiobacter K84; conditions: fixed ATP concentration (0.675 mM), saturating leucine
T2 sequence (B9JQP8 1-814 T42P/A102N/Q573M/Q413R): T1 sequence (B9JQP8 1-814 T42P/A102N/Q573M/DEL566-572)
Experimental: Aminoacylation activities of AgnB2, LeuRSAt and their mutants were measured in 50 mM HEPES buffer (pH 7.4) containing 20 mM KCl, 25 mM MgCl2, 25 mM β-ME, 4 mM ATP, 500 μM [3,4,5-^3H] L-leucine (20 μCi/mmole), 5 μg/ml inorganic pyrophosphatase, 1 μM BSA, 10 μM of active in vitro transcribed tRNA^Leu and enzymes in the range of 2–8 nM. Reactions were pre-incubated with or without substrate and/or inhibitor and then carried out at 28 °C (37 °C-LeuRSHp). Aliquots of the reaction (5–10 μl) were quenched on 3 mM filter pads (Whatman, GE Healthcare) presoaked with 5% trichloroacetic acid (TCA). The pads were washed thrice with 5% TCA and 90% ethanol at 4 °C and then dried. The amount of Leu-tRNA^Leu was then quantified using scintillation counting. Each reaction was performed in triplicate and analyzed using Kaleidagraph (for Km and kcat determinations) or GraphPad Prism software (for IC50 determination).

AgnB2 Triple Q413R = assay: Isothermal titration calorimetry, AgnB2 Triple Q413R mutant; assay type: binding, Agrobacterium radiobacter K84; conditions: ITC
Experimental: as §1

[6] = target: LeuRSAt (leucyl-tRNA synthetase); conditions: wt LeuRSAt, aminoacylation; read-out: Ki app; cited from earlier work

CC(C)[C@@H](O)[C@H](O)C(=O)NP(=O)(O)OC[C@@H]1C[C@H](O)[C@H](n2cnc3c(N)ncnc32)O1 [TM84]
activity remaining [1]: 4% | decrease in TM84 binding affinity compared with LeuRSAt, enzyme alone ([2]; LeuRSAt Triad alone): 10 fold | decrease in TM84 binding affinity compared with LeuRSAt, enzyme pre-incubated with tRNALeu ([2]; LeuRSAt Triad pre-incubated with tRNALeu): 28 fold | activity remaining [3]: 13% | increase in TM84 binding alone compared with wt AgnB2 [4]: fourfold | IC50 [5]: 2.9 µM | binding of TM84 to enzyme·tRNALeu complex tighter than wt AgnB2 (AgnB2 Triple Q413R; AgnB2 Triple Q413R·tRNALeu complex): sixfold | binding of TM84 to enzyme alone tighter than wt enzyme (AgnB2 Triple Q413R; enzyme alone): 1.3 fold | Ki [6]: 0.0003 ± 0.0001 µM
